“Also recorded” adds a separate entry of the source.
Columns and labels:
[1] = Blood parameters (glucose, HbA1c, insulin, cholesterol, triglycerides) in ZDF rats; format: in vivo, Zucker Diabetic fatty (ZDF) rats; details: high dosage 25 μg/100 g BW
Procedure: Rats were genetically obese normoglycemic (Zucker or Fa/Fa), 10-11 week-old diabetic rats (ZDF) or genetic non-overweight diabetic (type 2 diabetes) rats (Goto-Kakizaki (GK) model).
The day of the study, after a fasted period overnight (18 h), blood samplings will be taken in awake rats from the tail vein.
The following biochemical parameters were analyzed: glycemia, insulinemia, HbA1c, TG and Cholesterol.
Insulin levels were determined with commercial kits (Linco Research).
(§1) Glucose and 3-hydroxybutyrate (3-HB) were measured, enzymatically and non esterified fatty acid (NEFA) by colorimetric assay (Wako Chemicals).
(§2) Triglycerides and cholesterol were measured by classical routine automate apparatus.

[2] = Plasmatic concentrations of glucose, triglycerides, cholesterol, FFA and HDL on the day of sacrifice; format: in vivo, Wistar, Zucker and ZDF rats
Source text: These measurements were done on venous blood of the rats the day of the sacrifice.
At the end of the experimental period, animals were sacrificed by decapitation, in order to avoid the well-known effects of general anesthetics on mitochondrial metabolism. Blood, samples were immediately collected and plasma was frozen for subsequent determination of serum metabolites and hormones. Liver, muscles and fat depots were quickly excised and weighed. Liver median lobe was rapidly freeze-clamped. Muscles (plantaris, soleus and gastrocnemius) were frozen in isopentane precooled in liquid nitrogen. Mesenteric fat consisted, of adipose tissue surrounding the gastro-intestinal tract from the gastro-oesophageal sphincter to the end of the rectum with special care taken in distinguishing and removing the pancreas. Retroperitoneal fat pad was taken as the distinct depot behind each kidney along the lumbar muscles. Epididymal fat consisted, of adipose tissue on top of the epididymis. For subcutaneous depot measurement, a rectangular piece of skin was taken on the right side of each animal from the median line of the abdomen between the spine and the right hip to the first rib. Interscapular brown adipose tissue was removed and dissected free from adjacent muscles and white adipose tissue. The heart ventricles, the right kidney and the spleen were also excised, weighed and frozen.
as §1, §2

liver mitochondria = assay: Oxidative phosphorylation efficiency (ATP/O) in liver mitochondria of treated Wistar rats; format: in vivo; details: 3 weeks continuous subcutaneous 250 μg/kg, fatty acids (palmitoyl-, octanoyl-) and succinate as substrates
Procedure: Effect of 3,5-T2 on oxidative phosphorylation efficiency investigated in liver mitochondria of Wistar rats isolated after 3 weeks of continuous treatment administered subcutaneously (250 μg/kg).
FIGS. 20A, 20B, 20C and 20D represent the ratio between ATP synthesis (nmol/min/g prot) and liver mitochondrial oxygen consumption (nmol/min/g prot) (P/O) as a function of liver mitochondrial oxygen consumption.
All measurements were performed using mitochondria (1.0 mg mitochondrial protein/ml) incubated with various substrates: • GM: glutamate/malate (5 mM/2.5 mM) • Palm: palmitoyl carnitine (55 μM) • Octa: octanoyl carnitine (100 μM) and • Succ+Rot: succinate/rotenone (5 mM/5 μM)
ATP/O ratios with 5 mM glutamate/2.5 mM malate/5 mM succinate or octanoyl-carnitine (100 μM) as respiratory substrates were determined from the ATP synthesis rate (JATP) versus respiratory rate JO2 with an ADP regenerating system based, on hexokinase (EC 2.7.1.1) plus glucose. JATP and JO2 were measured as described above in a medium containing 125 mM KCl, 1 mM EGTA, 5 mM Tris-Pi, 20 mM Tris-HCl, 0.1% fat free BSA (pH 7.2). JATP was determined from glucose 6-phosphate formation in presence of 20 mM glucose, 1 mM MgCl2, and 125 μM ATP. JO2 and JATP were modulated by addition of increasing concentrations of hexokinase (Nogueira et al, J Bioenerg Biomemb., 34:55-66, 2002).

For `N[C@@H](Cc1cc(I)c(Oc2ccc(O)cc2)c(I)c1)C(=O)O` [3,5-T2, 3,5-diiodothyronine], the “Plasmatic cholesterol at the end of the treatment vs placebo” value [1] was “significantly lower”, the “Plasmatic triglycerides at the end of the treatment vs placebo” value [1] was “not different between the two groups” and the “Glycated hemoglobin (HbA1c)” value ([1]; 4 weeks) was “significant decrease”. The Plasmatic insulin concentration ([1]; 4 weeks) was “maintenance of insulin concentration at a high level; also recorded: increasing plasmatic insulin concentration”, the Plasmatic glucose concentration ([1]; from week 1 over 4 weeks) was “dramatic decrease; also recorded: decreasing glucose concentration” and the “Plasmatic glucose at the end of the treatment” value ([2]; non-diabetic Wistar rats, low dosage 2.5 μg/100 g BW) was “minor changes”. For the same compound, the “Plasmatic glucose at the end of the treatment” value ([2]; non-diabetic Zucker rats, 25 μg/100 g BW) was “minor changes” and the “Efficiency of oxidative phosphorylation (ATP/oxygen ratio)” value (liver mitochondria) was “lowers the yield of ATP synthesis”.
